Values quoted from earlier work as cited in patent US20240377378A1, “TRACER METHODS FOR THE DETERMINATION OF SORBENT CONTENT IN SOILS” (Regenesis Bioremediation Products, priority 2023, published 2024).

What was measured:
[1] = water
[2] = under normal conditions (Congo Red: normal or ambient conditions)
[3] = 2012 OSHA Hazard Communication Standard

| Solubility [1] [mg/mL] | Chemical Stability [2] | Solubility (in words) [1] | Hazard Identification: criteria for hazardous classification [3] | Compound | carcinogenicity hazard category [3] | reproductive toxicity hazard category [3] | pKa | Serious eye damage/eye irritation hazard category [3] | acute oral toxicity hazard category [3] |
| --- | --- | --- | --- | --- | --- | --- | --- | --- | --- |
| 25 to 116 | Stable under |  |  | Nc1c(/N=N/c2ccc(-c3ccc(/N=N/c4cc(S(=O)(=O)O)c5ccccc5c4N)cc3)cc2)cc(S(=O)(=O)O)c2ccccc12 [Congo Red] | (Category 1B), | (Category 2) |  |  |  |
| 50 to 100 | Stable under | soluble in water | Does not meet | O=S(=O)(O)c1cc(S(=O)(=O)O)c2c(/N=N/c3ccccc3)c(O)ccc2c1 [Orange G] |  |  | 11.5 |  |  |

| Compound | Solubility [1] [mg/mL] | Chemical Stability [2] | Solubility (in words) [1] | Hazard Identification: criteria for hazardous classification [3] | carcinogenicity hazard category [3] | reproductive toxicity hazard category [3] | pKa | Serious eye damage/eye irritation hazard category [3] | acute oral toxicity hazard category [3] |
| --- | --- | --- | --- | --- | --- | --- | --- | --- | --- |
| CCN(CC)c1ccc2c(-c3ccccc3C(=O)O)c3ccc(=[N+](CC)CC)cc-3oc2c1.[Cl-] [Rhodamine B] |  | Stable under |  |  |  |  | 3.1-3.22 | (Category 1) | (Category 4), |
